# Source: US6184254A, “Methods of identifying modulators of perivascular sensory nerve Ca2+ receptors” (priority 1998, dated 2001)
# Entries after “also recorded” stand apart in the source; their conditions may differ. Like-named read-outs stand apart in the source and are kept apart here. Ends that are not written are not given here.
# Tested on: Ca^2+-induced relaxation of mesenteric resistance arteries
# Experiment: Inhibition of Ca2+-induced relaxation of mesenteric resistance arteries by antagonists or denervation
# Design: species or system rat
# Details: for Result (antagonist effect on Ca2+-induced relaxation): Table 3
# [1] = FIG. 16, 3 μM miconazole, 1 μM pentobarbital or 1 μM quinacrine, p<0.05
compound,measurement,setting,value
"4 Cl-D-Phe^6,Leu^17 -VIP",Result (antagonist effect on Ca2+-induced relaxation),,no effect
"COc1ccccc1CN[C@H]1CCCN[C@H]1c1ccccc1 [CP99, 994]",Result (antagonist effect on Ca2+-induced relaxation),,no effect
COC(=O)[C@@H](N)CCCNC(=N)N[N+](=O)[O-] [L-NAME],effect on Ca2+-induced relaxation,100 μM L-NAME,inhibited/reversed
same,effect on Ca2+-induced relaxation,L-NAME pre-treatment,partially inhibited
same,Result (antagonist effect on Ca2+-induced relaxation),,no effect
CC(=O)NC1(c2ccccc2)CCN(CC[C@H](CN(C)C(=O)c2ccccc2)c2ccc(Cl)c(Cl)c2)CC1 [SR48968],Result (antagonist effect on Ca2+-induced relaxation),,no effect
CC(=O)N(C)C1(c2ccccc2)CCN(CCC[C@]2(c3ccc(Cl)c(Cl)c3)CCCN(C(=O)c3ccccc3)C2)CC1 [SR 142801],Result (antagonist effect on Ca2+-induced relaxation),,no effect
CC(C)Oc1cccc(CC(=O)N2CCC[C@](CC[N+]34CCC(c5ccccc5)(CC3)CC4)(c3ccc(Cl)c(Cl)c3)C2)c1 [SRI40333],Result (antagonist effect on Ca2+-induced relaxation),,no effect
CC[N+](CC)(CC)CC [TEA],effect on Ca2+-induced relaxation,,completely inhibited; also recorded: antagonized
CSCC[C@H](NC(=O)[C@H](CC(C)C)NC(=O)CNC(=O)[C@H](Cc1ccccc1)NC(=O)[C@H](Cc1ccccc1)NC(=O)[C@H](CCC(N)=O)NC(=O)[C@H](CCC(N)=O)NC(=O)[C@@H]1CCCN1C(=O)CNC(=O)[C@H](CC(C)C)NC(=O)[C@H](CC(C)C)NC(=O)[C@H](Cc1ccc(O)cc1)NC(=O)CNC(=O)[C@H](C)NC(=O)[C@H](CO)NC(=O)[C@H](CC(N)=O)NC(=O)[C@H](CC(C)C)NC(=O)[C@@H](NC(=O)[C@H](Cc1c[nH]c2ccccc12)NC(=O)CN)[C@@H](C)O)C(N)=O [galantide],Result (antagonist effect on Ca2+-induced relaxation),,no effect
COc1ccc2c(c1)c(CC(=O)O)c(C)n2C(=O)c1ccc(Cl)cc1 [indomethacin],Result (antagonist effect on Ca2+-induced relaxation),at 1.5 mM Ca2+,partial effect
Clc1ccc(COC(Cn2ccnc2)c2ccc(Cl)cc2Cl)c(Cl)c1 (stereo not shown) [miconazole],effect on Ca2+-induced relaxation,5 mM Ca2+,significantly attenuated
same,effect on Ca2+-induced relaxation,Ca2+ 1.5-3 mM,completely antagonized
same,effect on Ca2+-induced relaxation,[1],significantly attenuated
Oc1ccc2c3c1O[C@H]1c4[nH]c5c(c4C[C@@]4(O)[C@@H](C2)N(CC2CC2)CC[C@]314)C[C@@]1(O)[C@H]2Cc3ccc(O)c4c3[C@@]1(CCN2CC1CC1)[C@H]5O4 [nor-binaltorphmine],Result (antagonist effect on Ca2+-induced relaxation),,no effect
CCCC(C)C1(CC)C(=O)NC(=O)NC1=O (stereo not shown) [pentobarbital],effect on Ca2+-induced relaxation,,significantly attenuated
same,effect on Ca2+-induced relaxation,5 mM Ca2+,significantly attenuated
same,effect on Ca2+-induced relaxation,Ca2+ 1.5-3 mM,completely antagonized
Oc1ccccc1 [phenol],effect on Ca2+-induced relaxation,,completely blocks and often reverses; also recorded: significantly inhibited; also recorded: completely inhibits
CCN(CC)CCCC(C)Nc1c2ccc(Cl)cc2nc2ccc(OC)cc12 (stereo not shown) [quinacrine],effect on Ca2+-induced relaxation,[1],significantly attenuated
same,effect on Ca2+-induced relaxation,PLA2 blockade,significantly attenuates
CN1[C@@H]2CC[C@H]1C[C@@H](O)C2 [tropine],Result (antagonist effect on Ca2+-induced relaxation),,no effect
"CGRP (8-37): CGRP antagonist (VTHRLAGLLSRSGGVVKNNFVPTNVGSKAF; ends and bridges not checked; UniProt P06881 90-119, looked up, fragment)",Result (antagonist effect on Ca2+-induced relaxation),,no effect
spantide II,Result (antagonist effect on Ca2+-induced relaxation),,no effect
tin protoporphorin IX,Result (antagonist effect on Ca2+-induced relaxation),,no effect
